Values of other authors in patent US20110237609A1, “ANTIFOLATE COMPOSITIONS” (Chelsea Therapeutics, Inc., priority 2010, published 2011).

Assays:
[1] = in words; b190 refers to US 20090253720
[2] = in words, background statement

C=C(CC(NC(=O)c1ccc(CCc2ccc3nc(N)nc(N)c3c2)cc1)C(=O)O)C(=O)O (stereo not drawn)
solubility characteristics [1]: improved solubility characteristics in comparison to the dioic acid form

C=C(CC(NC(=O)c1ccc(CCc2ccc3nc(N)nc(N)c3c2)cc1)C(=O)O)C(=O)O (racemic) [compound of Formula (9), 2-{-4-[2-(2,4-diamino-quinazolin-6-yl)-ethyl]-benzoylamino}-4-methylene-pentanedioic acid]
solubility characteristics [1]: low solubility
bioavailability [2]: low bioavailability
